According to patent publication US5354746A, “Squaric acid derivatives of substituted dibenzoxazepine compounds, pharmaceutical compositions and methods of use” (G. D. Searle & Co., priority 1993, dated 1994):
Structures can show the parent of a compound that is named as a salt.

Key:
[1] = tested on: prostaglandin E2-induced contractions of segments of guinea pig ileum; test: Prostaglandin (PGE) Antagonism Assay (inhibition of prostaglandin E2-induced contractions of guinea pig ileum segments); conditions: ratio of prostaglandin E2 EC50 with/without test compound; initial concentration 3 micromolar; 30 min incubation; 37° C.; active if dose ratio >= 2
Experimental: In order to determine the effectiveness of several of the compounds of the present invention ("test compounds") as prostaglandin E2 antagonists,a prostaglandin antagonism assay was conducted, as described below, to determine the ability of these compounds to inhibit prostaglandin E2 -induced contractions of segments of guinea pig ileum. […] Male albino guinea pigs weighing 200 to 500 grams were sacrificed by cervical dislocation. The ilea were then quickly removed from the guinea pigs and placed in a modified Tyrode solution, a solution which is known to those skilled in the art, containing one-half of the usual amount of magnesium ions. Segments of ileum about 2 cm long were then cut and mounted in a 10 mL tissue bath containing the modified Tyrode solution. The solution was maintained at 37° C. and aerated with a gaseous mixture of 95% oxygen and 5% carbon dioxide. Data for a control prostaglandin E2 dose response curve plotting concentration of prostaglandin E2 versus the intensity of contractions, detected isotonically, was then obtained by experimentally adjusting the dose of the prostaglandin E2 being injected into the tissue bath, in a manner known by those of skill in the art. Solutions or suspensions containing an initial concentration (3 micromolar) of a test compound in modified Tyrode solution ("test solutions/suspensions") were then separately substituted for the control bath solution. Each test solution/suspension was then kept in constant contact with the ileum tissue, except for brief periods to drain the bath in preparation for rinsing with fresh test solution/suspension. A second prostaglandin E2 dose response curve was then generated for prostaglandin E2 in the presence of a test compound. A control dose response curve is produced in isolated segments of guinea pig ileum mounted in an automated apparatus with six concentrations of prostaglandin E2. A solution or suspension of test compound is substituted for the control bathing solution and is incubated for thirty minutes. An additional prostaglandin E2 dose response curve is then performed in the presence of the test compound. A dose ratio is calculated from the EC50 values obtained from duplicate replications on each concentration of the test compound. […] A dose ratio of EC50 doses was calculated from the results of each test in a manner known by those of skill in the art, and described above. A test compound was determined to be "active" if the initial concentration used yielded at least a two-fold shift (dose ratio greater than or equal to 2) in the dose response curve for prostaglandin E2. The compounds of the present invention which were tested in this assay, and for which results are presented in Table 1, correspond to the particular examples specified in Table 1.

mice = test: Writhing Assay (PBQ-induced writhing, analgesic activity in mice); assay type: in vivo, mouse (Charles River male albino mice); conditions: for WRITHING ASSAY Number Out of Ten (number of mice out of ten in which a test compound produced analgesia): 30 mg per kilogram i.g., 30 min before PBQ i.p., writhes <= one-half median of saline control
Text: The Writhing Assay is one of the most widely-used experimental procedures for measuring the analgesic activity of different narcotic and nonnarcotic analgesic agents, and involves the continuous, chemically-induced pain of visceral origin to an animal, such as a mouse or rat. [Gyires et al., Arch. int. Pharmacodyn, 267, 131-140 (1984); […] al., Fed. Proc., 15, 494 (1956); Koster et al., Fed. Proc., 18, 412 (1959); and Witken et al., J. Pharmacol. exp. Ther., 133, 400-408 (1961).] Chemicals which may be used to induce this pain include phenylbenzoquinone (PBQ) and acetic acid. As a result of the chemical irritation to the animal, a characteristic stretching and writhing of the animal (dorsiflexion of the animal's back, extension of its hindlimbs and the strong contraction of its abdominal musculature) will generally occur. […] Drugs which reduce the number of writhes of the animal appear to restore the normal nociceptive threshold of the animal. […] Charles River male albino mice, weighing 20 to 30 grams, were used in this assay. Thirty minutes after intragastric administration to ten mice of 30 mg per kilogram of body weight of a compound of the present invention ("test compound"), […] of body weight of a 0.025% w/v solution of PBQ was injected intraperitoneally into each mouse. Ten mice which were given saline in place of a test compound of the invention were used as a control group. Five minutes later, each mouse was individually placed into a glass beaker for observation, and the number of writhes occurring during the following ten-minute period was counted. A test compound was considered to have produced analgesia in a mouse if, in accordance with the conditions set forth above, and under the test criteria employed for this assay, after the administration of 30 mg per kilogram of body weight of a compound of the present invention to the mouse, the number of writhes elicited by a mouse injected with PBQ was equal to, or less than, one-half the median number of writhes recorded for the saline-treated control group of mice that day, as described by Taber in "Predictive Value of Analgesic Assays in Mice and Rats," Advances in Biochemical Psychopharmacology, 8, 191 (1974). The results for the particular compounds of the present invention analyzed in this assay, and discussed in the examples identified below which correspond thereto, are presented in Table 1 hereinbelow as fractions under the heading "WRITHING ASSAY." The fractions indicate the number of mice out of ten in which a test compound produced analgesia. The standard initial screening dose of a test compound employed in this assay was […]. If this initial screening dose of the test compound produced analgesia in seven out of ten mice, then the effect of additional doses of the test compound on the writhing response was evaluated, and then the ED50 dose was generally calculated. (The slopes of the dose-response curves for all test compounds analyzed were compared as described by Tallarida and Murray, Manual of Pharmacologic Calculations, Page 11 (Springer Verlag, New York, 1981)). All ED50 doses calculated are also presented in Table 1 hereinbelow under the heading "WRITHING ASSAY," but as whole numbers.

O=c1c(N2Cc3ccccc3Oc3ccc(Cl)cc32)c(N2Cc3ccccc3Oc3ccc(Cl)cc32)c1=O [Example 8, 3,4-bis[8-chlorodibenz[b,f][1,4]oxazepin-10(11H) -yl]-3-cyclobutene-1,2-dione]
PGE ANTAGONISM IN GUINEA PIG ILEUM Dose Ratio [1]: 1.9 ± 0.9 | WRITHING ASSAY Number Out of Ten (number of mice out of ten in which a test compound produced analgesia) (mice): 6/10

CN(C)CCNc1c(N2Cc3ccccc3Oc3ccc(Cl)cc32)c(=O)c1=O.Cl [Example 6, 3-(8-Chlorodibenz[b,f][1,4]oxazepin-10(11H)-yl)-4-[[2-(dimethylamino)ethyl]amino]-3-cyclobutene-1,2-dione, hydrochloride]
PGE ANTAGONISM IN GUINEA PIG ILEUM Dose Ratio [1]: 6.8 ± 4.5 | WRITHING ASSAY Number Out of Ten (number of mice out of ten in which a test compound produced analgesia) (mice): 6/10

Cl.O=c1c(NCc2ccncc2)c(N2Cc3ccccc3Oc3ccc(Cl)cc32)c1=O [Example 7, 3-(8-Chlorodibenz[b,f][1,4]oxazepin-10(11H)-yl)-4-[(4-pyridinylmethyl)amino]-3-cyclobutene-1,2-dione, hydrochloride]
PGE ANTAGONISM IN GUINEA PIG ILEUM Dose Ratio [1]: 22 ± 5 | ED50 (mice; Mus musculus, po, intragastric, PBQ i.p., dose producing analgesia in 50% of the animals, read-out: WRITHING ASSAY ED50 Dose I.G.): 9.7 mg/kg

CCN1CCN(c2c(N3Cc4ccccc4Oc4ccc(Cl)cc43)c(=O)c2=O)CC1 [Example 2, 3-(8-Chlorodibenz[b,f][1,4]oxazepin-10(! ! H)-yl)-4-(4-ethyl-1-piperazinyl)-3-cyclobutene-1,2-dione, monohydrochloride]
PGE ANTAGONISM IN GUINEA PIG ILEUM Dose Ratio [1]: 5.0 ± 2.6 | WRITHING ASSAY Number Out of Ten (number of mice out of ten in which a test compound produced analgesia) (mice): 6/10

CCOC(=O)C1CN(c2c(N3Cc4ccccc4Oc4ccc(Cl)cc43)c(=O)c2=O)CCN1c1ccccc1 (stereo not drawn) [Example 4, Ethyl 4-[2-(8-chlorodibenz[b,f][1,4]oxazepin-10(11H)-yl)-3,4-dioxo-1-cyclobuten-1-yl]-1-phenyl-2-piperazinecarboxylate]
WRITHING ASSAY Number Out of Ten (number of mice out of ten in which a test compound produced analgesia) (mice): 4/10
